Results reported in patent US9539284B2 (GLOBOASIA, LLC, priority 2006, dated 2017).
Values joined by “and” are separate entries in the source; they are usually repeats but may differ in a detail not shown here. Identical values can stand only once. Like-named read-outs stand apart in the source and are kept apart here.

Experiments:
[1] = Fe3+ content per 500 mg compound (selection criterion 3); type: physicochemical
From the text: 3. Appropriate equivalence of ferric ion per gram of compound. The potential ferric compound should contain enough ferric ions to effectively bind with dietary phosphate.

[2] = cited from earlier work
[3] = Harvey et al. 1998; cited from earlier work

Compound	Fe^3+ content per 500 mg compound ([1]; per 500 mg compound, unit mg)	pKa of anionic group [2]	also measured
O=C([O-])CN(CCN(CC(=O)[O-])CC(=O)O)CC(=O)[O-].[Fe+3] [ferric EDTA]	81 mg	–	–
O=C([O-])CN(CCO)CCN(CC(=O)[O-])CC(=O)[O-].[Fe+3] [ferric HEDTA]	85 mg	–	–
CC(=O)[O-].CC(=O)[O-].CC(=O)[O-].[Fe+3] [ferric acetate]	–	–	Fe^3+ content per 500 mg compound [1]: 120 mg
CC(=O)/C=C(/C)[O-].CC(=O)/C=C(/C)[O-].CC(=O)/C=C(/C)[O-].[Fe+3] [ferric acetylacetonate]	78 mg	–	–
O=C([O-])[O-].O=C([O-])[O-].O=C([O-])[O-].[Fe+3].[Fe+3] [ferric carbonate]	–	10.3	Fe^3+ content per 500 mg compound [1]: 191 mg
C[N+](C)(C)CCO.O=C([O-])CC(O)(CC(=O)[O-])C(=O)[O-].[Fe+3] [ferric choline citrate]	–	–	Fe^3+ content per 500 mg compound [1]: 79 mg
O=C[O-].O=C[O-].O=C[O-].[Fe+3] [ferric formate]	–	pKa = 3.75	Fe^3+ content per 500 mg compound [1]: 147 mg
O=C([O-])/C=C/C(=O)[O-].O=C([O-])/C=C/C(=O)[O-].O=C([O-])/C=C/C(=O)[O-].[Fe+3].[Fe+3] [ferric fumarate]	125 mg	pKa = 3.02	–
O=C([O-])CC(O)C(=O)[O-].O=C([O-])CC(O)C(=O)[O-].O=C([O-])CC(O)C(=O)[O-].[Fe+3].[Fe+3] (stereo not drawn) [ferric malate]	110 mg	pKa = 3.4	–
CCCCC(CC)C(=O)[O-].CCCCC(CC)C(=O)[O-].CCCCC(CC)C(=O)[O-].[Fe+3] (stereo not drawn) [ferric octoate]	58 mg	–	–
O=C([O-])C(=O)[O-].O=C([O-])C(=O)[O-].O=C([O-])C(=O)[O-].[Fe+3].[Fe+3] [ferric oxalate]	142 mg	pKa = 1.25	–
NCC(=O)[O-].NCC(=O)[O-].NCC(=O)[O-].[Fe+3] [ferric triglycinate]	–	pKa = 2.35	Fe^3+ content per 500 mg compound [1]: 100 mg
Cc1occc(=O)c1[O-].Cc1occc(=O)c1[O-].Cc1occc(=O)c1[O-].[Fe+3] [ferric trimaltol]	65 mg	–	correcting iron deficiency [3]: capable of correcting iron deficiency
ferric ascorbate	121 mg	pKa = 4.04	–
ferric aspartate	62 mg	pKa = 1.99	–
ferric citrate [reference compound]	114 mg	pKa = 6.4	–
ferric gluconate	44 mg	–	–
ferric histidinate	54 mg	–	–
ferric oleate	31 mg	–	–
ferric picolinate	66 mg	–	–
ferric tartrate	56 mg and 100 mg	–	pKa of anionic group, pKa1 ([2]; first pKa): pKa1 = 2.98; pKa of anionic group, pKa2 ([2]; second pKa): pKa2 = 4.34
